Laboratory results published in patent US20070259856A1, “Method for Activating Trpv4 Channel Receptors by Agonists” (priority 2004, published 2007).

Assays:
[1] = test system: bovine articular cartilage explants; test: IL-1 induced collagen degradation (hydroxyproline) in bovine articular cartilage explants; type: cell-based; details: 1 uM, IL-1 50 ng/ml, media from day 14-18
Description: IL-1 stimulates collagen degradation in bovine articular cartilage explants after extended (−2-3 weeks) exposure to IL-1. Collagen breakdown was evaluated by measuring the levels of hydroxyproline, a major component of hydrolyzed collagen fibrils, using a colorimetric assay that is understood in the art. Bovine articular cartilage was stimulated with IL-1 for 18 days, in the absence or presence of Formula Ib or Formula IId (both at 1 uM). Media was removed and replaced every 2-4 days with fresh IL-1 and compound through day 18. As has been shown previously, aggrecan degradation precedes collagen breakdown in IL-1-stimulated bovine cartilage explants. Once aggrecan depletion had been achieved by day 10, media were analyzed for collagen breakdown using the hydroxyproline assay.

nitric oxide = test: IL-1 induced nitric oxide production, bovine articular chondrocytes in alginate beads (Greiss reaction); type: cell-based; details: IL-1 10 ng/mL
Description: Nitric oxide (NO) is a free radical that is believed to contribute to the tissue destruction in osteoarthritis. While having direct effects on cartilage matrix damage, NO can also contribute by activating latent proteases which leads to increased tissue destruction. To evaluate the effect of TRPV4 channel receptor agonists on NO production, bovine articular chondrocytes were embedded in alginate beads as described in Hauselmann, et al. (1992) Matrix 12: 116-129, and NO levels were determined in the conditioned media by Greiss reaction (Badger A M, et al. (1998) J. Immunol. 161: 467-473), following stimulation by IL-1, in the absence or presence of TRPV4 channel receptor agonist.

ADAMTS-4 (aggrecanase-1) = biological target: T1, ADAMTS-4 (aggrecanase-1) (Homo sapiens, UniProt O75173); test: Cleavage of the peptide substrate by soluble ADAMTS-4; type: biochemical
T1 sequence (O75173 213-837): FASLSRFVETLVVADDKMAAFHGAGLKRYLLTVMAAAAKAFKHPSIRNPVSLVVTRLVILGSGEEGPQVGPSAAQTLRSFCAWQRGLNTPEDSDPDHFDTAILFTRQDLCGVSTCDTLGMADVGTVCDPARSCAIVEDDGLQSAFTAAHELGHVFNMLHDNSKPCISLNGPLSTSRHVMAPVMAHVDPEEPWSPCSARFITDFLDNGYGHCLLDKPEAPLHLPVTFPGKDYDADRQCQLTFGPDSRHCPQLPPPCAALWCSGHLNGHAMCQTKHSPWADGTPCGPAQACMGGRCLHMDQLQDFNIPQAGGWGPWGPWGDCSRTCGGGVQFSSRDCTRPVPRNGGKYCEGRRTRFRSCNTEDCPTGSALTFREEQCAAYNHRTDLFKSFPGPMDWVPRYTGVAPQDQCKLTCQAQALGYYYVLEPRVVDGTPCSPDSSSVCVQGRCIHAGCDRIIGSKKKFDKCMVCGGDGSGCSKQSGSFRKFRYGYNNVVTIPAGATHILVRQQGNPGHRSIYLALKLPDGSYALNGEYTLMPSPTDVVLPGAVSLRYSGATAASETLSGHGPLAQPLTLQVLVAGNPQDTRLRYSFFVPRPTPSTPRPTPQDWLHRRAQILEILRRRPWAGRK

proteoglycan synthesis = test: Proteoglycan synthesis ([35S] incorporation), bovine articular chondrocytes in alginate beads; type: cell-based; details: IL-1 10 ng/mL
From the text: Although cartilage degradation is the hallmark of osteoarthritis, there is also a reduction in the ability of chondrocytes to resynthesize damaged matrix. It has been observed that cytokines, including IL-1, cause a significant reduction in collagen and proteoglycan (PG) synthesis. The effect on matrix synthesis, combined with the stimulation of matrix breakdown by these cytokines, leads to an overall net loss of cartilage matrix. The effects of TRPV4 channel receptor agonists on the synthesis of proteoglycans was measured by [^35S] incorporation in bovine articular chondrocytes embedded in alginate beads. IL-1 caused an inhibition of [^35S] incorporation into large molecular weight proteoglycan monomers, and Formula IIb caused a concentration-dependent reversal of the IL1-mediated inhibition of PG synthesis as shown in Table 10.

aggrecanase = test: IL-1 induced aggrecanase production, chondrocyte-based aggrecanase peptide cleavage assay; type: cell-based, bovine; details: IL-1 3.0 ng/mL; for Aggrecanase Production (Mean ± SEM OD 450 nm): 24 hour
From the text: Aggrecanases (ADAMTSs), in conjunction with MMPs, degrade aggrecan, one of the major matrix components in articular cartilage. […] 2003; 48(1): 119-133].

MMP-3 = test: IL-1 induced MMP-3 production in human chondrocytes; type: cell-based; details: IL-1 10 ng/mL, 24 hours
Description: (§1) Human chondrocytes were exposed to L-1 (10 ng/mL) to induce MMP-3 and MMP-13 production. Increased production of MMP-3 and MMP-13 was verified by both Northern blot (mRNA) and ELISA assay (protein). Cells were exposed to Formula IIb at concentrations ranging from 0.1 μM to 10 μM. […] TRPV4 channel receptor agonist inhibits IL-1-induced MMP-3 and MMP-13 production.

MMP-13 = test: IL-1 induced MMP-13 production in human chondrocytes; type: cell-based; details: IL-1 10 ng/mL, 24 hours
Description: as §1

SMILES: CC(C)C[C@H](NC(=O)c1cc2ccccc2s1)C(=O)N[C@@H]1CCCN(S(=O)(=O)c2ccc(F)cc2)CC1=O [Formula IIb, N-{(1S)-1-[({(4R)-1-[(4-fluorophenyl)sulfonyl]-3-oxohexahydro-1H-azepin-4-yl}amino)carbonyl]-3-methylbutyl}-1-benzothiophene-2-carboxamide]
- Hydroxyproline Mean ± SEM [1]: 16 ± 6 µg
- inhibition at 1 µM ([1]; Bos taurus, 336 h): 81%
- NO levels Mean ± SEM (nitric oxide; 0.3 μM): 17 ± 1 µM
- NO levels Mean ± SEM (nitric oxide; 1.0 μM): 6 ± 1 µM
- NO levels Mean ± SEM (nitric oxide; 3.0 μM): 2 ± 0 µM
- inhibition at 0.3 µM (nitric oxide; Bos taurus, Chondrocyte, 0.3 μM, read-out: % inhibition of NO): 38%
- inhibition at 1 µM (nitric oxide; Bos taurus, Chondrocyte, 1.0 μM, read-out: % inhibition of NO): 81%
- inhibition at 3 µM (nitric oxide; Bos taurus, Chondrocyte, 3.0 μM, read-out: % inhibition of NO): 96%
- effect on cleavage of the peptide substrate by soluble ADAMTS-4 (ADAMTS-4 (aggrecanase-1)): no effect
- % IL-1 reversal (proteoglycan synthesis; 0.3 uM): 3%
- PG synthesis Mean ± SEM (proteoglycan synthesis; 0.3 uM): 878 ± 48 cpm/bead
- % IL-1 reversal (proteoglycan synthesis; 1.0 uM): 15%
- PG synthesis Mean ± SEM (proteoglycan synthesis; 1.0 uM): 1066 ± 69 cpm/bead
- % IL-1 reversal (proteoglycan synthesis; 3.0 uM): 44%
- PG synthesis Mean ± SEM (proteoglycan synthesis; 3.0 uM): 1530 ± 73 cpm/bead
- Aggrecanase Production (Mean ± SEM OD 450 nm) (aggrecanase; 0.03 μM): 2.018 ± 0.044 OD 450 nm
- Aggrecanase Production (Mean ± SEM OD 450 nm) (aggrecanase; 0.10 μM): 1.669 ± 0.029 OD 450 nm
- Aggrecanase Production (Mean ± SEM OD 450 nm) (aggrecanase; 0.30 μM): 1.139 ± 0.032 OD 450 nm
- Aggrecanase Production (Mean ± SEM OD 450 nm) (aggrecanase; 1.00 μM): 0.851 ± 0.024 OD 450 nm
- inhibition at 0.03 µM (aggrecanase; Bos taurus, 0.03 μM): 11%
- inhibition at 0.1 µM (aggrecanase; Bos taurus, 0.10 μM): 33%
- inhibition at 0.3 µM (aggrecanase; Bos taurus, 0.30 μM): 65%
- inhibition at 1 µM (aggrecanase; Bos taurus, 1.00 μM): 83%
- MMP-3 mRNA expression Mean (MMP-3; 0.1 μM): 0.92 Fraction of IL-1
- MMP-3 mRNA expression Mean (MMP-3; 0.3 μM): 0.91 Fraction of IL-1
- MMP-3 mRNA expression Mean (MMP-3; 1.0 μM): 0.88 Fraction of IL-1
- MMP-3 mRNA expression Mean (MMP-3; 3.0 μM): 0.68 Fraction of IL-1
- MMP-3 mRNA expression Mean (MMP-3; 10.00 μM): 0.43 Fraction of IL-1
- MMP-13 mRNA expression Mean (MMP-13; 0.1 μM): 0.89 Fraction of IL-1
- MMP-13 mRNA expression Mean (MMP-13; 0.3 μM): 0.87 Fraction of IL-1
- MMP-13 mRNA expression Mean (MMP-13; 1.0 μM): 0.79 Fraction of IL-1
- MMP-13 mRNA expression Mean (MMP-13; 3.0 μM): 0.29 Fraction of IL-1
- MMP-13 mRNA expression Mean (MMP-13; 10.00 μM): 0.09 Fraction of IL-1
